Measurements from article PMC9405973, “Altered Conformational Landscape upon Sensing Guanine Nucleotides in a Disease Mutant of Elongation Factor-like 1 (EFL1) GTPase” (Biomolecules, 2022).
Where “and” joins values, the source holds several entries; their conditions need not be identical. Equal entries are not always repeated. Where two headings read alike, the source gives them in different places.

Assays:
Efl1 R1086Q•Sdo1 = biological target: T1, Efl1 R1086Q•Sdo1 (Saccharomyces cerevisiae, UniProt P53893, R1086Q); test: ITC: binding of guanine nucleotides to pre-formed complex Efl1 R1086Q•Sdo1; conditions: for ΔCpb: from ΔHb at 25–35 °C; for -TΔs / Δg / Δh / κ (heterotropic cooperativity): Effect of Mg^2+
T1 construct: made in house; host or cells: Efl1: Saccharomyces cerevisiae; Sdo1: Escherichia coli C41
Protocol: All calorimetric measurements were carried out using MicroCal^TM iTC200 System (GE Healthcare, Northampton, MA, USA) in a temperature range of 25–35 °C. Experiments were performed in a buffer consisting of 50 mM Tris-HCl (pH 8.0), 150 mM NaCl, 100 µM DTT, and 5% glycerol. In the titrations with Mg^2+-bound nucleotides, both the ligand and protein solutions contained 5 mM MgCl2. In the case of titrations with Mg^2+-free nucleotide, both the ligand and protein solutions were supplemented with 2 mM EDTA to sequester any residual trace of metal ions in solution. Protein samples and ligands were prepared in the exact same buffer prior to each titration. Protein concentration in the cell comprised 30–50 µM GTPase, while the ligand concentration in the syringe was 2–3 mM for GTP, MgGTP, GDP, and MgGDP. To ensure measuring the interaction of the complex Efl1 R1086Q•Sdo1 with the nucleotide, an eight-fold concentration excess of Sdo1 was used compared with that of the enzyme. […] The titration schedule consisted of 15–20 consecutive injections of the ligand with 5 min intervals between injections and a stirring rate of 700 rpm. The dilution heat of the ligand was obtained by adding the ligand to a buffer solution under identical conditions and with the same injection schedule used for the protein sample. All samples were degassed for 10 min prior to the experiment.
The binding isotherms obtained for the isolated GTPase in the presence of Mg(II) were analysed using a ternary model in which the protein can bind to the free nucleotide (G(D)TP) or that bound to one magnesium ion (MgG(D)TP); additionally, GTP may also exist in the form of Mg2GTP, which is not recognised by the protein. The derivation of this coupled-equilibria model can be reviewed in [6, 31]. The binding constant (Kb), the enthalpy change (∆Hb), and the stoichiometry (n) were obtained with the non-linear routines implemented in Origin 5.0 (OriginLab, Co., Northampton, MA, USA) using a one-binding-site model as described in [32, 33]. The heterotropic cooperativity for the binding of guanine nucleotides and Sdo1 to Efl1 R1086Q were calculated as previously described in [6, 32]. The cooperative effects of Mg(II) on the binding of guanine nucleotides to Efl1 R1086Q alone and bound to Sdo1 were calculated as follows:κ = KE-MG/KE-G κ = KES-MG/KES-G Δh = ΔHE-MG − ΔHE-G Δh = ΔHES-MG − ΔHES-G where subscripts E-MG and E-G stand for the association of the metal-bound and metal-free guanine nucleotide with mutant Efl1, respectively. Corresponding expressions applied to the heterotropic cooperativity of the binding of nucleotides to the preformed complex, Efl1•Sdo1 (ES).
The impact of Sdo1 on the binding of Efl1 R1086Q to guanine nucleotides in the presence of magnesium ions is contained in KES-MG and ΔHES-MG relative to the KE-S and ΔHE-S values; analogous ratios report the effects in the absence of Mg(II):κ = KES-MG/KE-S κ = KES-G/KE-G Δh = ΔHES-MG − ΔHE-S Δh = ΔHES-G − ΔHE-G
The corresponding cooperative entropy change was calculated as:TΔs = Δh − Δg = Δh + RTlnκ
The detailed methodology and equations to compute the changes in the accessible surface area (∆ASA) of the GTPase upon binding to nucleotides and the ∆S energetic-based parameters are reported in [6]. Briefly, the water-accessible areas (ASAs) were computed using programme NACCESS, while the changes in accessible surface area (ΔASA) upon the formation of each GTPase–nucleotide complex were estimated considering the difference between the complex and the sum of the free interacting partners. The calculated polar (ΔASAp) and apolar (ΔASAap) area changes were subsequently used to estimate the free molecular partners. […]

wild-type Efl1 = conditions: cited from earlier work; for -TΔSb / Kd / ΔGb / ΔHb / ΔCpb: guanine nucleotide
[1] = Effect of Mg^2+, wild-type Efl1 − Sdo1, 30 °C
[2] = Effect of Sdo1, wild-type Efl1 − Mg^2+, 30 °C

T1 sequence (P53893 whole entry R1086Q): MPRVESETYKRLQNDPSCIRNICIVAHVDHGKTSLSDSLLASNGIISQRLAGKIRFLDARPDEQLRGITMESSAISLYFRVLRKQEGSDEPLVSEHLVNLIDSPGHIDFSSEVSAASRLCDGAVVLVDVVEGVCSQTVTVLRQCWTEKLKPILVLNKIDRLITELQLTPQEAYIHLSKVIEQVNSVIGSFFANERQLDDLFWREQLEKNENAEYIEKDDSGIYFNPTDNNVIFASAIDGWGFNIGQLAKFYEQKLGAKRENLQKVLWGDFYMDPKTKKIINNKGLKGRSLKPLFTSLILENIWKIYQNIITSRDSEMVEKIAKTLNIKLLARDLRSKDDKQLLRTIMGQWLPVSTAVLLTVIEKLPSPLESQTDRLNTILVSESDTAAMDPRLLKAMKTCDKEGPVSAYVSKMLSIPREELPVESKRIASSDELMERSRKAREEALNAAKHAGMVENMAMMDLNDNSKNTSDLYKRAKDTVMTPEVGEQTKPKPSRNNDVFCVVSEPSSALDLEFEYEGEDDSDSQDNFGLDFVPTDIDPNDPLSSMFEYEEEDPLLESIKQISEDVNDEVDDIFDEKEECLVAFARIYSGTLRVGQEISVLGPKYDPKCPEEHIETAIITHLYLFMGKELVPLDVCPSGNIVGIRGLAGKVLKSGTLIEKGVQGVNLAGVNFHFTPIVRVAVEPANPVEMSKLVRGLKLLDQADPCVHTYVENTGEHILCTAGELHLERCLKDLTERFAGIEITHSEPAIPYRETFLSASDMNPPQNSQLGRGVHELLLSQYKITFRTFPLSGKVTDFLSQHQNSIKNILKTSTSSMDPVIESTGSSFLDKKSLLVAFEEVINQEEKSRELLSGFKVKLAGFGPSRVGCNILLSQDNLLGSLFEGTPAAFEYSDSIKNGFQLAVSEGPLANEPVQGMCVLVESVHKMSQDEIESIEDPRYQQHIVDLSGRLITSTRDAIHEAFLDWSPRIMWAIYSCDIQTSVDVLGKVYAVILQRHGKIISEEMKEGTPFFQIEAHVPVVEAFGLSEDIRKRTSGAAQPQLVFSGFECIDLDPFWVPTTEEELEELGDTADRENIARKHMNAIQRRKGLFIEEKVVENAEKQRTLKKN
T1 sequence (Q07953 whole entry, further chain): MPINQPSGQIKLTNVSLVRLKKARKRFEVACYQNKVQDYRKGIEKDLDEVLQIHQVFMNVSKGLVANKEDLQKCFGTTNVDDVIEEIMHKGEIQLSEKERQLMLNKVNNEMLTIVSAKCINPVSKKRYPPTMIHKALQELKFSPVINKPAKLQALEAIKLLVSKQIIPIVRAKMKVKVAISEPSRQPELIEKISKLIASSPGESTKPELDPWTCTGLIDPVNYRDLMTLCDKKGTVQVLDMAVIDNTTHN

## Nc1nc2c(ncn2[C@@H]2O[C@H](COP(=O)(O)OP(=O)(O)O)[C@@H](O)[C@H]2O)c(=O)[nH]1 [GDP]
Efl1 R1086Q•Sdo1; +Mg^2+ vs −Mg^2+
  fold greater affinity in the presence of magnesium ions: 2–5 times
Efl1 R1086Q•Sdo1; +Mg^2+, 25 °C
  -TΔSb: -4.7 kcal/mol
  ΔGb: -6.9 kcal/mol
  ΔHb: -2.1 ± 0.08 kcal/mol
  Kd: 9 ± 2 µM
Efl1 R1086Q•Sdo1; +Mg^2+, 30 °C
  -TΔSb: -3.3 kcal/mol
  Nconfres (number of residues changing conformation, absolute value): 25
  Nconfrotb (number of routable bonds changing conformation, absolute value): 34
  ΔCpconf: −267 cal mol^−1 K^−1
  ΔCprb: −48 cal mol^−1 K^−1
  ΔGb: -7.1 kcal/mol
  ΔHb: -3.8 ± 0.05 kcal/mol
  ΔSb: 11 cal mol^−1 K^−1
  ΔSconf: −57 cal mol^−1 K^−1
  ΔSsolv: 75 cal mol^−1 K^−1
  −ΔASAconf: 1198 Å^2
  Kd: 8 ± 1 µM
Efl1 R1086Q•Sdo1; +Mg^2+, 35 °C
  -TΔSb: -2.0 kcal/mol
  ΔGb: -7.3 kcal/mol
  ΔHb: -5.3 ± 0.11 kcal/mol
  Kd: 6 ± 1 µM
Efl1 R1086Q•Sdo1; +Mg^2+
  ΔCpb: −315 cal mol^−1 K^−1 and −315 ± 9 cal mol^−1 K^−1
Efl1 R1086Q•Sdo1; Efl1 R1086Q + Sdo1, 25 °C
  -TΔs: -0.7 kcal/mol
  Δg: -0.4 kcal/mol
  Δh: 0.3 kcal/mol
  κ (heterotropic cooperativity): 1.9
Efl1 R1086Q•Sdo1; Efl1 R1086Q + Sdo1, 30 °C
  -TΔs: -2.4 kcal/mol
  Δg: -0.8 kcal/mol
  Δh: 1.6 kcal/mol
  κ (heterotropic cooperativity): 3.7
Efl1 R1086Q•Sdo1; Efl1 R1086Q + Sdo1, 35 °C
  -TΔs: -3.7 kcal/mol
  Δg: -1.0 kcal/mol
  Δh: 2.7 kcal/mol
  κ (heterotropic cooperativity): 5.4
Efl1 R1086Q•Sdo1; −Mg^2+, 25 °C
  Kd: 17 ± 0.5 µM
  -TΔSb: -4.0 kcal/mol
  ΔGb: -6.5 kcal/mol
  ΔHb: -2.5 ± 0.4 kcal/mol
Efl1 R1086Q•Sdo1; −Mg^2+, 30 °C
  Kd: 30 ± 4 µM
  -TΔSb: -1.0 kcal/mol
  Nconfres (number of residues changing conformation, absolute value): 50
  Nconfrotb (number of routable bonds changing conformation, absolute value): 72
  ΔCpconf: −520 cal mol^−1 K^−1
  ΔGb: -6.3 kcal/mol
  ΔHb: -5.4 ± 0.6 kcal/mol
  ΔSb: 3 cal mol^−1 K^−1
  ΔSconf: −121 cal mol^−1 K^−1
  ΔSsolv: 132 cal mol^−1 K^−1
  −ΔASAconf: 2334 Å^2
Efl1 R1086Q•Sdo1; −Mg^2+, 35 °C
  Kd: 34 ± 5 µM
  -TΔSb: 1.7 kcal/mol
  ΔGb: -6.30 kcal/mol
  ΔHb: -8.0 ± 0.8 kcal/mol
Efl1 R1086Q•Sdo1; −Mg^2+
  ΔCpb: −550 cal mol^−1 K^−1 and −550 ± 18 cal mol^−1 K^−1
wild-type Efl1; [1]
  -TΔs: -0.5 kcal/mol
  Δg: 0.6 kcal/mol
  Δh: 1.1 kcal/mol
  κ (heterotropic cooperativity): 0.4
wild-type Efl1; [2]
  -TΔs: 1.5 kcal/mol
  Δg: 0.8 kcal/mol
  Δh: -0.7 kcal/mol
  κ (heterotropic cooperativity): 0.3
wild-type Efl1; +Mg^2+, 30 °C
  -TΔSb: -0.5 kcal/mol
  Kd: 37 µM
  ΔGb: -6.1 kcal/mol
  ΔHb: -5.6 ± 0.2 kcal/mol
wild-type Efl1; +Mg^2+
  ΔCpb: −310 ± 5 cal mol^−1 K^−1 and −310 cal mol^−1 K^−1
wild-type Efl1; −Mg^2+, 30 °C
  -TΔSb: 0.0 kcal/mol
  Kd: 16 µM
  ΔGb: -6.7 kcal/mol
  ΔHb: -6.7 ± 0.3 kcal/mol
wild-type Efl1; −Mg^2+
  ΔCpb: −318 ± 35 cal mol^−1 K^−1 and −318 cal mol^−1 K^−1

## Nc1nc2c(ncn2[C@@H]2O[C@H](COP(=O)(O)OP(=O)(O)OP(=O)(O)O)[C@@H](O)[C@H]2O)c(=O)[nH]1 [GTP]
Efl1 R1086Q•Sdo1; +Mg^2+, 25 °C
  -TΔSb: -5.1 kcal/mol
  ΔGb: -6.2 kcal/mol
  ΔHb: -1.1 ± 0.04 kcal/mol
  Kd: 29 ± 5 µM
Efl1 R1086Q•Sdo1; +Mg^2+, 30 °C
  -TΔSb: -2.9 kcal/mol
  Nconfres (number of residues changing conformation, absolute value): 36
  Nconfrotb (number of routable bonds changing conformation, absolute value): 47
  ΔCpconf: −375 cal mol^−1 K^−1
  ΔCprb: −25 cal mol^−1 K^−1
  ΔGb: -5.9 kcal/mol
  ΔHb: -3.0 ± 0.2 kcal/mol
  ΔSb: 9 cal mol^−1 K^−1
  ΔSconf: −78 cal mol^−1 K^−1
  ΔSsolv: 96 cal mol^−1 K^−1
  −ΔASAconf: 1683 Å^2
  Kd: 58 ± 7 µM
Efl1 R1086Q•Sdo1; +Mg^2+, 35 °C
  -TΔSb: -0.9 kcal/mol
  ΔGb: -6.0 kcal/mol
  ΔHb: -5.1 ± 0.4 kcal/mol
  Kd: 52 ± 7 µM
Efl1 R1086Q•Sdo1; +Mg^2+
  ΔCpb: −400 cal mol^−1 K^−1 and −400 ± 11 cal mol^−1 K^−1
Efl1 R1086Q•Sdo1; Efl1 R1086Q + Sdo1, 25 °C
  -TΔs: -2.6 kcal/mol
  Δg: 0.3 kcal/mol
  Δh: 2.9 kcal/mol
  κ (heterotropic cooperativity): 0.6
Efl1 R1086Q•Sdo1; Efl1 R1086Q + Sdo1, 30 °C
  -TΔs: -0.3 kcal/mol
  Δg: 0.6 kcal/mol
  Δh: 0.9 kcal/mol
  κ (heterotropic cooperativity): 0.3
Efl1 R1086Q•Sdo1; Efl1 R1086Q + Sdo1, 35 °C
  -TΔs: 1.9 kcal/mol
  Δg: 0.5 kcal/mol
  Δh: -1.4 kcal/mol
  κ (heterotropic cooperativity): 0.5
Efl1 R1086Q•Sdo1; −Mg^2+, 25 °C
  Kd: 17 ± 5 µM
  -TΔSb: -2.5 kcal/mol
  ΔGb: -6.5 kcal/mol
  ΔHb: -4.0 ± 0.2 kcal/mol
Efl1 R1086Q•Sdo1; −Mg^2+, 30 °C
  Kd: 23 ± 7 µM
  -TΔSb: -2.6 kcal/mol
  Nconfres (number of residues changing conformation, absolute value): 4
  Nconfrotb (number of routable bonds changing conformation, absolute value): 14
  ΔCpconf: 41 cal mol^−1 K^−1
  ΔGb: -6.5 kcal/mol
  ΔHb: -3.9 ± 0.1 kcal/mol
  ΔSb: 9 cal mol^−1 K^−1
  ΔSconf: 24 cal mol^−1 K^−1
  ΔSsolv: −7 cal mol^−1 K^−1
  −ΔASAconf: −184 Å^2
Efl1 R1086Q•Sdo1; −Mg^2+, 35 °C
  Kd: 25 ± 7 µM
  -TΔSb: -2.8 kcal/mol
  ΔGb: -6.5 kcal/mol
  ΔHb: -3.7 ± 0.4 kcal/mol
Efl1 R1086Q•Sdo1; absence of magnesium ions
  fold decrease in affinity of the preformed complex compared with the free enzyme: 2–4 times
Efl1 R1086Q•Sdo1; −Mg^2+
  ΔCpb: 30 cal mol^−1 K^−1 and 30 ± 6 cal mol^−1 K^−1
wild-type Efl1; [1]
  -TΔs: -1.3 kcal/mol
  Δg: -0.4 kcal/mol
  Δh: 0.9 kcal/mol
  κ (heterotropic cooperativity): 2
wild-type Efl1; [2]
  -TΔs: -7.0 kcal/mol
  Δg: -1.8 kcal/mol
  Δh: 5.2 kcal/mol
  κ (heterotropic cooperativity): 22.3
wild-type Efl1; +Mg^2+, 30 °C
  -TΔSb: 1.0 kcal/mol
  Kd: 125 µM
  ΔGb: -5.4 kcal/mol
  ΔHb: -6.4 ± 0.4 kcal/mol
wild-type Efl1; +Mg^2+
  ΔCpb: −560 ± 23 cal mol^−1 K^−1 and −560 cal mol^−1 K^−1
wild-type Efl1; −Mg^2+, 30 °C
  -TΔSb: 2.3 kcal/mol
  Kd: 250 µM
  ΔGb: -5.0 kcal/mol
  ΔHb: -7.3 ± 0.3 kcal/mol
wild-type Efl1; −Mg^2+
  ΔCpb: −700 ± 34 cal mol^−1 K^−1 and −700 cal mol^−1 K^−1
wild-type Efl1; wild-type Efl1
  fold by which Sdo1 favoured the interaction with GTP: 20–40 fold
